Data reported in ChEMBL document CHEMBL3991601, “The target landscape of clinical kinase drugs” (Science, 2017).
Activity calls are given as the source filed them. For most assays here, no stated cut-off is given here; in the data, actives have a measured Kd and inactives only a lower limit.

Key:
[1] = molecular target: Tyrosine-protein kinase Lyn (Homo sapiens, UniProt P07948)
[2] = molecular target: Casein kinase I isoform delta (Homo sapiens, UniProt P48730)
[3] = molecular target: T1, Serine/threonine-protein kinase A-Raf (Homo sapiens, UniProt P10398)
T1 sequence (P10398 whole entry): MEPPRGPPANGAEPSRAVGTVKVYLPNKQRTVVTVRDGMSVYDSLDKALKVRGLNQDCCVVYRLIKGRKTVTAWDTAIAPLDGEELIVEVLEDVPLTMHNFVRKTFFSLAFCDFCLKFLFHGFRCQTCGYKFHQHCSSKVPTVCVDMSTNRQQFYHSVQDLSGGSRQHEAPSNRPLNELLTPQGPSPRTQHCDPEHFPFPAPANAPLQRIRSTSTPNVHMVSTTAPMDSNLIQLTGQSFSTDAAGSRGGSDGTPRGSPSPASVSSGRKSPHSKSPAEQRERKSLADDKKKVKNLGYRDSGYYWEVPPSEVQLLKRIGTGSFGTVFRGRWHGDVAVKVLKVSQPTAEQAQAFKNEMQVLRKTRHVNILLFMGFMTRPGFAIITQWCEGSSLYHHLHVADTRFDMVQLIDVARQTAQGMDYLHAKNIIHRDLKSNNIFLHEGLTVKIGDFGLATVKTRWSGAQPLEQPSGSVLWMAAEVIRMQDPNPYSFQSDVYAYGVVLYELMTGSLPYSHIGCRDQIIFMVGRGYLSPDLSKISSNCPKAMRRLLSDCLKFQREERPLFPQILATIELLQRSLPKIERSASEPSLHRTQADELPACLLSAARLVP

GTP-binding protein 4 = GTP-binding protein 4 (Homo sapiens, UniProt Q9BZE4)
[4] = molecular target: Fibroblast growth factor receptor 1 (Homo sapiens, UniProt P11362)
Sequence of Fibroblast growth factor receptor 1 (P11362 whole entry): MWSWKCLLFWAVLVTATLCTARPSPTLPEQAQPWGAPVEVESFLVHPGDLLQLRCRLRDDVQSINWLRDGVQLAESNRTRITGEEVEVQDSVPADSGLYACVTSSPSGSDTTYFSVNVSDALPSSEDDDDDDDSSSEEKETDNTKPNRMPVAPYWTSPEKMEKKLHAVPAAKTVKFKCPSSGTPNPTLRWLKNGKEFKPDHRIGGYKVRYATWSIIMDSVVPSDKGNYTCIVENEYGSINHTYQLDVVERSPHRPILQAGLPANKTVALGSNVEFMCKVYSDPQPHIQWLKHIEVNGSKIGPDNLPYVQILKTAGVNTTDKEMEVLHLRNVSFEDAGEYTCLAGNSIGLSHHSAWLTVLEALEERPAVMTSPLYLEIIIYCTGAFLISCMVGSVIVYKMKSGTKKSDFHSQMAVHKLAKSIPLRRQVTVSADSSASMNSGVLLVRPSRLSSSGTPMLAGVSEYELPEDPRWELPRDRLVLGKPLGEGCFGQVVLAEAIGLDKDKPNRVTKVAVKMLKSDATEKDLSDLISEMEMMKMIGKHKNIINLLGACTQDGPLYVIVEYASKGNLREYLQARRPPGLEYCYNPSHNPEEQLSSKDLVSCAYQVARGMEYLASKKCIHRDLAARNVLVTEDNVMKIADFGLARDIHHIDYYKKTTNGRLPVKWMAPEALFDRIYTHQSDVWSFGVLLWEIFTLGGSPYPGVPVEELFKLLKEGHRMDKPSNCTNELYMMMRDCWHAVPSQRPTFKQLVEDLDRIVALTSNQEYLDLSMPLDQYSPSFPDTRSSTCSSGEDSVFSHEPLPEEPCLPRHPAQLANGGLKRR

[5] = molecular target: U5 small nuclear ribonucleoprotein 200 kDa helicase (Homo sapiens, UniProt O75643)
Sequence of U5 small nuclear ribonucleoprotein 200 kDa helicase (O75643 whole entry): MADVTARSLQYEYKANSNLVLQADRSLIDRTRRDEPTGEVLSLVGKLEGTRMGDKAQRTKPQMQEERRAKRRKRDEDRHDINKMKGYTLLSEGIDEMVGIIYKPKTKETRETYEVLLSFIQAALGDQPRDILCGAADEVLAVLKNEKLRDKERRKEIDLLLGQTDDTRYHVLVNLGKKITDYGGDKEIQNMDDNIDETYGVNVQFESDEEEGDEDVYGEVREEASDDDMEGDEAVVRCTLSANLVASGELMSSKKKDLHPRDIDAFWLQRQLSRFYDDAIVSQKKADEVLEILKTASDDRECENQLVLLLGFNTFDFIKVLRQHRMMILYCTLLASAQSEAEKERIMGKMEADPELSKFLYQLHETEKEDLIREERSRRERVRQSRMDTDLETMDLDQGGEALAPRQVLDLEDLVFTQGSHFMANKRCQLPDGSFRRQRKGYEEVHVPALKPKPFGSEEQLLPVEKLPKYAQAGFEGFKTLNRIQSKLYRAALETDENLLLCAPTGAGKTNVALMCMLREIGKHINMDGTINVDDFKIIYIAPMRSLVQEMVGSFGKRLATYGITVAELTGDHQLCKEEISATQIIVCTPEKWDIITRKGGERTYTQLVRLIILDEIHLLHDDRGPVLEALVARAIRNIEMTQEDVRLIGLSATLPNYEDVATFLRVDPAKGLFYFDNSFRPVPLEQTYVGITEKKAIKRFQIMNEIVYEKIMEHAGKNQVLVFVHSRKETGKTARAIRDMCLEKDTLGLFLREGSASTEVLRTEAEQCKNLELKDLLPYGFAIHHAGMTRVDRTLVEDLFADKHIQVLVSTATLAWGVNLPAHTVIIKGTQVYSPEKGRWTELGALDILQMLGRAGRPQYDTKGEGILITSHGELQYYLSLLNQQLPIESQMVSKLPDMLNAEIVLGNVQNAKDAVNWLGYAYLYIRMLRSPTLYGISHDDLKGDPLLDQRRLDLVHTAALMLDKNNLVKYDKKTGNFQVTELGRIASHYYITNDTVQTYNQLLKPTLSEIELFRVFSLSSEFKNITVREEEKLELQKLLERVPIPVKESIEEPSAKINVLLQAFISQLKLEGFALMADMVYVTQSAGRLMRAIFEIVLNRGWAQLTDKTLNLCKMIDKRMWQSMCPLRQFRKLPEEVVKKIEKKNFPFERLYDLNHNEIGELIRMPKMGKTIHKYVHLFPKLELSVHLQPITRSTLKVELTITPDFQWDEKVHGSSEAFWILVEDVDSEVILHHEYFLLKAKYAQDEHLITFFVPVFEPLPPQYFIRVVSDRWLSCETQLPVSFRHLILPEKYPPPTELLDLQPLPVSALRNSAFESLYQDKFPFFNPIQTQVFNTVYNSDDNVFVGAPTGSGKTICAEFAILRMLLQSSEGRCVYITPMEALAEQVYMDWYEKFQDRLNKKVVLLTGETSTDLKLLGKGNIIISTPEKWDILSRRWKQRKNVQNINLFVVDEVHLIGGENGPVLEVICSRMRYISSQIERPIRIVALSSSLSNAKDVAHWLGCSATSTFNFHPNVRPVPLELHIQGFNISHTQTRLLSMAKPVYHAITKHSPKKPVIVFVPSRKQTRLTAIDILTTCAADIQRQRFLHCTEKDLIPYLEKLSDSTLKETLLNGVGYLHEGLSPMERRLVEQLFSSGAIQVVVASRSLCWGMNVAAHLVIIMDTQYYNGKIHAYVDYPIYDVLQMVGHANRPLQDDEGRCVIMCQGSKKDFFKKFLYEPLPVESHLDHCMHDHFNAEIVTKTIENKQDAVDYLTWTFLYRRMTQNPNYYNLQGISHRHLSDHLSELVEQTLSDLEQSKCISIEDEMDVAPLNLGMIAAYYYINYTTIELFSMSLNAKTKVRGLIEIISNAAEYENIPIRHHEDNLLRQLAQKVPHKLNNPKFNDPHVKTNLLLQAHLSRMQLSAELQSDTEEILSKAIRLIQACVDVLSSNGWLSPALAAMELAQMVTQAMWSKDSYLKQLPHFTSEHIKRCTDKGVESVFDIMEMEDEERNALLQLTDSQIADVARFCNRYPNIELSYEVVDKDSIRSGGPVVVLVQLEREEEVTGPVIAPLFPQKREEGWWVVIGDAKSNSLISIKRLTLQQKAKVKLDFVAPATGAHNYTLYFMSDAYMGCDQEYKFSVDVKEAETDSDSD

[6] = molecular target: T2, Serine/threonine-protein kinase TAO2 (Homo sapiens, UniProt Q9UL54)
T2 sequence (Q9UL54 whole entry): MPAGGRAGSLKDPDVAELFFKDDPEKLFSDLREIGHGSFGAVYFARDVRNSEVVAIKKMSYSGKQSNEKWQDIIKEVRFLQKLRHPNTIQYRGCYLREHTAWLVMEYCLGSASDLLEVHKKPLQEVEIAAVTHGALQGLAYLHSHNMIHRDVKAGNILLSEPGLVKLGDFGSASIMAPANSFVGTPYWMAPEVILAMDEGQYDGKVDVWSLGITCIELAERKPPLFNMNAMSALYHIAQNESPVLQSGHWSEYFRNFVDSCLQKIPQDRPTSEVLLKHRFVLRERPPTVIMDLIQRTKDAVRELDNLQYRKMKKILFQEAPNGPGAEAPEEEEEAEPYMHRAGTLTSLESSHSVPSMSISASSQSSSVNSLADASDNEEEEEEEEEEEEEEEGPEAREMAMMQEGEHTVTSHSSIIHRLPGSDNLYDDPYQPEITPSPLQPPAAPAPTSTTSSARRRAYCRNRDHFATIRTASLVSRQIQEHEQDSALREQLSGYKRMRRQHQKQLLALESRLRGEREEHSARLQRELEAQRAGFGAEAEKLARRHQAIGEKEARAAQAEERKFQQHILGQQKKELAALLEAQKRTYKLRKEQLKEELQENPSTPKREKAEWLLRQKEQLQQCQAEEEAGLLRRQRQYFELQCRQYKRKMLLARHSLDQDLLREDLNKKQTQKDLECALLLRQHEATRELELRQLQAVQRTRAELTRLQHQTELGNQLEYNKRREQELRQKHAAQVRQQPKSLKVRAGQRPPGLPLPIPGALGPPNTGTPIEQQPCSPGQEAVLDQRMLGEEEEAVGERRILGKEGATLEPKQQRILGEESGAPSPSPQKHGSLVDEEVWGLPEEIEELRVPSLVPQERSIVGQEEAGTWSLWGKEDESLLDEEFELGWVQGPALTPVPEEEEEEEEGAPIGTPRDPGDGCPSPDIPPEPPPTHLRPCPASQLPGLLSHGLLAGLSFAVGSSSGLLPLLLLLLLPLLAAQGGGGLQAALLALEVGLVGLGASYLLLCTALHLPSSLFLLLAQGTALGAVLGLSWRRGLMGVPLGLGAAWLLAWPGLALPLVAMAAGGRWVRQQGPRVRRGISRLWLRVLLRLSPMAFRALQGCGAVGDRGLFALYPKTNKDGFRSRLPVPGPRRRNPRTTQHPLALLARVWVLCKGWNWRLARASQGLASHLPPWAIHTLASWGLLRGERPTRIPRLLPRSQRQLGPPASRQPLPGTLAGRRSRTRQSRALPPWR

[7] = molecular target: Ribosomal protein S6 kinase alpha-4 (Homo sapiens, UniProt O75676)
Sequence of Ribosomal protein S6 kinase alpha-4 (O75676 whole entry): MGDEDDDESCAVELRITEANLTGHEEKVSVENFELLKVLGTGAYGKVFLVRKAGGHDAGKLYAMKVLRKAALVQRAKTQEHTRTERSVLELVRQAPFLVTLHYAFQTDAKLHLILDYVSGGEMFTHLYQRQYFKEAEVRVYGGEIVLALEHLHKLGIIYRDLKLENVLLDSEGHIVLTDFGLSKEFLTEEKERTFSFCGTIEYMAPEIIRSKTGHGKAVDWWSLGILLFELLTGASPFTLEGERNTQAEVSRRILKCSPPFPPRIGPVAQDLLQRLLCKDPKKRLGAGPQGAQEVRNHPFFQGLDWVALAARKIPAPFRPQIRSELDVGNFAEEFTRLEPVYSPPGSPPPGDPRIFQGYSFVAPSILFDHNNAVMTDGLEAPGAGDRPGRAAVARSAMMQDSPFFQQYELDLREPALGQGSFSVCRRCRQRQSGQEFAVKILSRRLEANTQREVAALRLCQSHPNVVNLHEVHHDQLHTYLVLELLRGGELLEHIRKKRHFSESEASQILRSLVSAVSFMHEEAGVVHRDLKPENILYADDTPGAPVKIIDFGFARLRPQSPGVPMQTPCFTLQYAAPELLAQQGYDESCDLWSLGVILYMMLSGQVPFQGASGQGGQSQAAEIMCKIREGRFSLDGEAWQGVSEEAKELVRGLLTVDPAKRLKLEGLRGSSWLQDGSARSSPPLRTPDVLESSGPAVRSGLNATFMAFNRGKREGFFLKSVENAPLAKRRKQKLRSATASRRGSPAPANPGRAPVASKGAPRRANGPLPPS

[8] = molecular target: T3, Beta-adrenergic receptor kinase 1 (Homo sapiens, UniProt P25098)
T3 sequence (P25098 whole entry): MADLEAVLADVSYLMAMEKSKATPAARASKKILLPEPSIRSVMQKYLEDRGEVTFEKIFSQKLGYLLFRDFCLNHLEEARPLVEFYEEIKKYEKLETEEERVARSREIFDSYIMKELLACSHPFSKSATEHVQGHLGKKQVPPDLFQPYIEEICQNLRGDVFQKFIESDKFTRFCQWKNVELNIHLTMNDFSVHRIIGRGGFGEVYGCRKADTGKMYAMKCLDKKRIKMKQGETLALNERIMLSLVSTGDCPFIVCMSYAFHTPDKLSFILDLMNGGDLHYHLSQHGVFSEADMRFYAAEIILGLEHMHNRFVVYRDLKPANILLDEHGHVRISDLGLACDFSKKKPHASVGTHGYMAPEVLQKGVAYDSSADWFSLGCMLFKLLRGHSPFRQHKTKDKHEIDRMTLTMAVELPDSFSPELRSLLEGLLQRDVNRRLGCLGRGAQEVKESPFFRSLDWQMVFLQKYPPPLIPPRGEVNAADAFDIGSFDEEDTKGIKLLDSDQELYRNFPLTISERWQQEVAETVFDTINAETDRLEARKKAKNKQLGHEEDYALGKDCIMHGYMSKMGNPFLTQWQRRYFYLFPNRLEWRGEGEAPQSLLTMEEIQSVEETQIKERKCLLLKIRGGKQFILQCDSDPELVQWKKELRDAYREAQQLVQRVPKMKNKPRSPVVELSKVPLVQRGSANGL

Sequence of Tyrosine-protein kinase Lyn (P07948 whole entry, canonical isoform): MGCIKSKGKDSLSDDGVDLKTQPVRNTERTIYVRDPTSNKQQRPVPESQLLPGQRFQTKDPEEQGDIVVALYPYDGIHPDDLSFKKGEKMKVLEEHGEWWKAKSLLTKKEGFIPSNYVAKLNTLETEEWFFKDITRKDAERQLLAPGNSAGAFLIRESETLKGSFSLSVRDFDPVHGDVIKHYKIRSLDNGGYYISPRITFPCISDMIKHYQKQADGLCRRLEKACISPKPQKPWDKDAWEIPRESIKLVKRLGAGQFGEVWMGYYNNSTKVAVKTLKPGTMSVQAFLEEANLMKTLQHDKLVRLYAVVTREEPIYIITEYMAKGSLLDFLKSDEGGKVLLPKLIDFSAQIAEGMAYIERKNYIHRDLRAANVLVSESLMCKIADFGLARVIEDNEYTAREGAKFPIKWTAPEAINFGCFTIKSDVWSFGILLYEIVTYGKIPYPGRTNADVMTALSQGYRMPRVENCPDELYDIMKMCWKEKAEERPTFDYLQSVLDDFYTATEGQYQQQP
Sequence of Casein kinase I isoform delta (P48730 whole entry, canonical isoform): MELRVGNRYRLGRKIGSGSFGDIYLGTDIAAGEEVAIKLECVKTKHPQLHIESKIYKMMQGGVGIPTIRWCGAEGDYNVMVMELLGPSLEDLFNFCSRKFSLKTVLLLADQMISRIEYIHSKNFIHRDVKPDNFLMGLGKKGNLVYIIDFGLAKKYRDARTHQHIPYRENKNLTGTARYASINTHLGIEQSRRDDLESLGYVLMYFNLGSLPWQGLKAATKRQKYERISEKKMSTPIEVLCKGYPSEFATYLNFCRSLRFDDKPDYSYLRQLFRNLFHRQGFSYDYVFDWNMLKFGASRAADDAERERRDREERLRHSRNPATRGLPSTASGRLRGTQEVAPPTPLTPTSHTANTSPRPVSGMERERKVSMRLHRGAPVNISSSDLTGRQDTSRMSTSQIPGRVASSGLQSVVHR

CCc1nc(C(N)=O)c(Nc2ccc(N3CCC(N4CCN(C)CC4)CC3)c(OC)c2)nc1NC1CCOCC1 [GILTERITINIB]
Kd [1]: > 30 µM (inactive)
Kd [2]: > 30 µM (inactive)
Kd [3]: > 30 µM (inactive)
Kd (GTP-binding protein 4): > 30 µM (inactive)
Kd [4]: > 30 µM (inactive)
Kd [5]: 1.38 µM (active)
Kd [6]: 2.09 µM (active)
Kd [7]: > 30 µM (inactive)
Kd [8]: > 30 µM (inactive)

Cc1c(Cn2c(C)nc3c(C(=O)O)cc(N4CCOCC4)cc32)cccc1C(F)(F)F [GSK-2636771]
Kd [1]: > 30 µM (inactive)
Kd [2]: > 30 µM (inactive)
Kd [3]: > 30 µM (inactive)
Kd (GTP-binding protein 4): > 30 µM (inactive)
Kd [4]: > 30 µM (inactive)
Kd [5]: > 30 µM (inactive)
Kd [6]: > 30 µM (inactive)
Kd [7]: > 30 µM (inactive)
Kd [8]: > 30 µM (inactive)

C#Cc1cccc(Nc2ncnc3cc4c(cc23)OCCOCCOCCO4)c1 [ICOTINIB]
Kd [1]: > 30 µM (inactive)
Kd [2]: > 30 µM (inactive)
Kd [3]: > 30 µM (inactive)
Kd (GTP-binding protein 4): > 30 µM (inactive)
Kd [4]: > 30 µM (inactive)
Kd [5]: > 30 µM (inactive)
Kd [6]: > 30 µM (inactive)
Kd [7]: > 30 µM (inactive)
Kd [8]: > 30 µM (inactive)

COc1cc2ncnc3c2cc1OCCCCCN(C)Cc1ccc(Br)cc1N3 [JNJ-26483327]
Kd [1]: > 30 µM (inactive)
Kd [2]: > 30 µM (inactive)
Kd [3]: > 30 µM (inactive)
Kd (GTP-binding protein 4): > 30 µM (inactive)
Kd [4]: > 30 µM (inactive)
Kd [5]: > 30 µM (inactive)
Kd [6]: > 30 µM (inactive)
Kd [7]: > 30 µM (inactive)
Kd [8]: > 30 µM (inactive)

Cc1ccc(C(=O)Nc2ccc(Oc3cc4cnn(C)c4cc3-c3cn[nH]c3)c(F)c2)c(=O)n1-c1ccc(F)cc1 [MERESTINIB]
Kd [1]: > 30 µM (inactive)
Kd [2]: > 30 µM (inactive)
Kd [3]: > 30 µM (inactive)
Kd (GTP-binding protein 4): > 30 µM (inactive)
Kd [4]: > 30 µM (inactive)
Kd [5]: > 30 µM (inactive)
Kd [6]: > 30 µM (inactive)
Kd [7]: > 30 µM (inactive)
Kd [8]: > 30 µM (inactive)

O=C(NOC[C@H](O)CO)c1ccc(F)c(F)c1Nc1ccc(I)cc1F [MIRDAMETINIB]
Kd [1]: > 30 µM (inactive)
Kd [2]: > 30 µM (inactive)
Kd [3]: > 30 µM (inactive)
Kd (GTP-binding protein 4): > 30 µM (inactive)
Kd [4]: > 30 µM (inactive)
Kd [5]: > 30 µM (inactive)
Kd [6]: > 30 µM (inactive)
Kd [7]: > 30 µM (inactive)
Kd [8]: > 30 µM (inactive)

COc1cccc2cc(-c3nc([C@H]4CC[C@H](C(=O)O)CC4)n4ncnc(N)c34)[nH]c12 [OSI-027]
Kd [1]: > 30 µM (inactive)
Kd [2]: > 30 µM (inactive)
Kd [3]: > 30 µM (inactive)
Kd (GTP-binding protein 4): > 30 µM (inactive)
Kd [4]: > 30 µM (inactive)
Kd [5]: > 30 µM (inactive)
Kd [6]: > 30 µM (inactive)
Kd [7]: > 30 µM (inactive)
Kd [8]: > 30 µM (inactive)

O=C(Nc1ccc(OC(F)(F)F)cc1)c1sccc1NCc1ccnc2ccccc12 [OSI-930]
Kd [1]: > 30 µM (inactive)
Kd [2]: > 30 µM (inactive)
Kd [3]: > 30 µM (inactive)
Kd (GTP-binding protein 4): > 30 µM (inactive)
Kd [4]: > 30 µM (inactive)
Kd [5]: > 30 µM (inactive)
Kd [6]: > 30 µM (inactive)
Kd [7]: > 30 µM (inactive)
Kd [8]: > 30 µM (inactive)

C=CC(=O)Nc1cc(Nc2nccc(-c3cn(C)c4ccccc34)n2)c(OC)cc1N(C)CCN(C)C [OSIMERTINIB]
Kd [1]: > 30 µM (inactive)
Kd [2]: > 30 µM (inactive)
Kd [3]: > 30 µM (inactive)
Kd (GTP-binding protein 4): > 30 µM (inactive)
Kd [4]: > 30 µM (inactive)
Kd [5]: > 30 µM (inactive)
Kd [6]: > 30 µM (inactive)
Kd [7]: > 30 µM (inactive)
Kd [8]: > 30 µM (inactive)

FC(F)(F)c1ccc(CNc2ccc(Cc3c[nH]c4ncc(Cl)cc34)cn2)cn1 [PEXIDARTINIB]
Kd [1]: > 30 µM (inactive)
Kd [2]: > 30 µM (inactive)
Kd [3]: > 30 µM (inactive)
Kd (GTP-binding protein 4): > 30 µM (inactive)
Kd [4]: > 30 µM (inactive)
Kd [5]: > 30 µM (inactive)
Kd [6]: > 30 µM (inactive)
Kd [7]: > 30 µM (inactive)
Kd [8]: > 30 µM (inactive)

CC(C)CC(=O)Nc1[nH]nc2c1CN(C(=O)C1CCN(C)CC1)C2(C)C [PHA-793887]
Kd [1]: > 30 µM (inactive)
Kd [2]: > 30 µM (inactive)
Kd [3]: > 30 µM (inactive)
Kd (GTP-binding protein 4): > 30 µM (inactive)
Kd [4]: > 30 µM (inactive)
Kd [5]: > 30 µM (inactive)
Kd [6]: > 30 µM (inactive)
Kd [7]: > 30 µM (inactive)
Kd [8]: > 30 µM (inactive)

O=C(NC[C@H](O)CO)c1ccncc1Nc1ccc(I)cc1F [PIMASERTIB]
Kd [1]: > 30 µM (inactive)
Kd [2]: > 30 µM (inactive)
Kd [3]: > 30 µM (inactive)
Kd (GTP-binding protein 4): > 30 µM (inactive)
Kd [4]: > 30 µM (inactive)
Kd [5]: > 30 µM (inactive)
Kd [6]: > 30 µM (inactive)
Kd [7]: > 30 µM (inactive)
Kd [8]: > 30 µM (inactive)

COc1cc(F)c(F)c(Nc2ccc(I)cc2F)c1NS(=O)(=O)C1(C[C@H](O)CO)CC1 [REFAMETINIB]
Kd [1]: > 30 µM (inactive)
Kd [2]: > 30 µM (inactive)
Kd [3]: > 30 µM (inactive)
Kd (GTP-binding protein 4): > 30 µM (inactive)
Kd [4]: > 30 µM (inactive)
Kd [5]: > 30 µM (inactive)
Kd [6]: > 30 µM (inactive)
Kd [7]: > 30 µM (inactive)
Kd [8]: > 30 µM (inactive)

COCCN1CCN(Cc2ccc(-c3n[nH]c4c3C(=O)c3c(NC(=O)NN5CCOCC5)cccc3-4)cc2)CC1 [RGB-286638]
Kd [1]: > 30 µM (inactive)
Kd [2]: 1.22 µM (active)
Kd [3]: > 30 µM (inactive)
Kd (GTP-binding protein 4): > 30 µM (inactive)
Kd [4]: > 30 µM (inactive)
Kd [5]: > 30 µM (inactive)
Kd [6]: > 30 µM (inactive)
Kd [7]: > 30 µM (inactive)
Kd [8]: > 30 µM (inactive)

C=CC(=O)Nc1cccc(Nc2nc(Nc3ccc(N4CCN(C(C)=O)CC4)cc3OC)ncc2C(F)(F)F)c1 [ROCILETINIB]
Kd [1]: > 30 µM (inactive)
Kd [2]: > 30 µM (inactive)
Kd [3]: > 30 µM (inactive)
Kd (GTP-binding protein 4): > 30 µM (inactive)
Kd [4]: > 30 µM (inactive)
Kd [5]: > 30 µM (inactive)
Kd [6]: > 30 µM (inactive)
Kd [7]: > 30 µM (inactive)
Kd [8]: > 30 µM (inactive)
